Source: the NIST ThermoML archive (doi:10.1016/j.jct.2017.07.016)

Experiment: xn = mol fraction of the nth substance listed
Details: 96.7 kPa, Liquid; for viscosity: Capillary tube (Ostwald / Ubbelohde) method; for mass density: Vibrating tube method

CCCCCCn1cc[n+](C)c1.[Cl-] [1-hexyl-3-methylimidazolium chloride] + CN(C)C=O
Details	mass density [kg/m3]	viscosity [mPa·s]
303.15 K, x1 = 0.134	974.15	2.479
303.15 K, x1 = 0.265	995.06	8.757
303.15 K, x1 = 0.352	1004.26	20.21
303.15 K, x1 = 0.457	1013.06	47.11
303.15 K, x1 = 0.591	1021.21	158.5
303.15 K, x1 = 0.764	1029.04	666.71
303.15 K, x1 = 0.871	1032.74	2341.7
303.15 K, x1 = 1	1036.07	5718.5
308.15 K, x1 = 0.134	970.01	2.265
308.15 K, x1 = 0.265	991.32	7.582
308.15 K, x1 = 0.352	1000.71	16.69
308.15 K, x1 = 0.457	1009.56	38
308.15 K, x1 = 0.591	1018.02	120.91
308.15 K, x1 = 0.764	1026.03	466.32
308.15 K, x1 = 0.871	1029.81	1478.3
308.15 K, x1 = 1	1033.22	3430.8
313.15 K, x1 = 0.134	965.87	2.075
313.15 K, x1 = 0.265	987.59	6.651
313.15 K, x1 = 0.352	997.11	14.24
313.15 K, x1 = 0.457	1006.09	30.89
313.15 K, x1 = 0.591	1014.86	92.58
313.15 K, x1 = 0.764	1023.06	333.82
313.15 K, x1 = 0.871	1026.9	1002.9
313.15 K, x1 = 1	1030.38	2146.1
318.15 K, x1 = 0.134	961.73	1.962
318.15 K, x1 = 0.265	983.87	5.854
318.15 K, x1 = 0.352	993.45	12.13
318.15 K, x1 = 0.457	1002.63	25.38
318.15 K, x1 = 0.591	1011.71	72.08
318.15 K, x1 = 0.764	1020.1	241.58
318.15 K, x1 = 0.871	1023.98	685.17
318.15 K, x1 = 1	1027.56	1390.4
323.15 K, x1 = 0.134	957.59	1.797
323.15 K, x1 = 0.265	980.14	5.212
323.15 K, x1 = 0.352	989.87	10.45
323.15 K, x1 = 0.457	999.19	21.15
323.15 K, x1 = 0.591	1008.57	57.17
323.15 K, x1 = 0.764	1017.14	178.79
323.15 K, x1 = 0.871	1021.09	479.12
323.15 K, x1 = 1	1024.75	928.1
328.15 K, x1 = 0.134	953.45	1.656
328.15 K, x1 = 0.265	976.43	4.647
328.15 K, x1 = 0.352	986.25	9.067
328.15 K, x1 = 0.457	995.78	17.82
328.15 K, x1 = 0.591	1005.44	45.82
328.15 K, x1 = 0.764	1014.17	135.89
328.15 K, x1 = 0.871	1018.25	344.77
328.15 K, x1 = 1	1021.92	638.79
333.15 K, x1 = 0.134	949.31	1.544
333.15 K, x1 = 0.265	972.72	4.175
333.15 K, x1 = 0.352	982.75	7.933
333.15 K, x1 = 0.457	992.43	15.17
333.15 K, x1 = 0.591	1002.31	37.41
333.15 K, x1 = 0.764	1011.21	104.75
333.15 K, x1 = 0.871	1015.42	253.05
333.15 K, x1 = 1	1019.13	453.59
338.15 K, x1 = 0.134	945.16	1.426
338.15 K, x1 = 0.265	969.01	3.776
338.15 K, x1 = 0.352	979.34	7.016
338.15 K, x1 = 0.457	989.15	13.04
338.15 K, x1 = 0.591	999.19	30.94
338.15 K, x1 = 0.764	1008.27	82.3
338.15 K, x1 = 0.871	1012.58	190.24
338.15 K, x1 = 1	1016.38	327.52
343.15 K, x1 = 0.134	941	1.328
343.15 K, x1 = 0.265	965.31	3.431
343.15 K, x1 = 0.352	975.92	6.246
343.15 K, x1 = 0.457	985.94	11.3
343.15 K, x1 = 0.591	996.09	25.86
343.15 K, x1 = 0.764	1005.34	65.58
343.15 K, x1 = 0.871	1009.75	143.98
343.15 K, x1 = 1	1013.65	243.04
348.15 K, x1 = 0.134	936.86	1.244
348.15 K, x1 = 0.265	961.62	3.135
348.15 K, x1 = 0.352	972.5	5.564
348.15 K, x1 = 0.457	982.8	9.895
348.15 K, x1 = 0.591	992.99	21.85
348.15 K, x1 = 0.764	1002.41	52.81
348.15 K, x1 = 0.871	1006.93	112.06
348.15 K, x1 = 1	1010.91	183.45
353.15 K, x1 = 0.134	932.7	1.171
353.15 K, x1 = 0.265	957.92	2.875
353.15 K, x1 = 0.352	969.09	5.007
353.15 K, x1 = 0.457	979.67	8.708
353.15 K, x1 = 0.591	989.9	18.59
353.15 K, x1 = 0.764	999.51	43.42
353.15 K, x1 = 0.871	1004.11	88.51
353.15 K, x1 = 1	1008.18	140.06
